From US10849872B2, “Methods and compositions for treating obesity, preventing weight gain, promoting weight loss, promoting slimming, or treating or preventing the development of diabetes” (NAN Global, LLC, priority 2014, dated 2020)

Tests used:
obese subjects = experiment: Synergistic effects of tyrphostin 9 and L-carnitine tartrate in obese subjects; type: in vivo, human; details: Group A: two capsules per day of 20 mg tyrphostin 9, oral
Method: Obese subjects with similar BMI and whose weight had remained essentially constant during the past 30 days were recruited, instructed not to modify their eating habits, food intake, or lifestyle, and randomly and blindly assigned to either treatment Group A, Group B, or Group C.
Subjects in Group A were administered (orally) two capsules per day, each containing 20 mg Tyrphostin 9 plus inert excipient; subjects in Group B were administered (orally) four capsules per day, each containing 5 mg tyrphostin 9 and about 700 mg L-carnitine tartrate; subjects in Group C were administered—in the morning—two capsules, each containing 20 mg Tyrphostin 9 plus inert excipient, and—at night time—four capsules, each containing about 700 mg of L-carnitine tartrate.
After a two week washout period, a new experiment was initiated. Subjects in Group A were orally administered two capsules per day, each containing 20 mg Tyrphostin 9 plus inert excipient, subjects in Group B were given eight capsules per day, each containing 5 mg Tyrphostin 9 plus about 700 mg L-carnitine tartrate, and subjects in Group C were administered—in the morning—two capsules, each containing 20 mg tyrphostin 9 plus inert excipient and, at night, eight capsules each containing about 700 mg L-carnitine tartrate.

C57BL/6 mice = experiment: Feeding experiments of C57BL/6 mice, oral tyrphostin 9; type: in vivo
Method: (§1) A preclinical toxicity study of tyrphostin 9 was conducted in human cell lines (brain, liver, lung, intestine, kidney, and muscle), followed by feeding experiments of C57BL/6 mice. In the in vivo mice experiments, the mice were orally administered tyrphostin 9 during 15 days, at a dose of 0.175 mg/kg/day.

[1] = Shelf life of synthesised tyrphostin 9; type: physicochemical; details: at 25-35° C.
Method: This procedure yields about 800 g (about 95% yield) of a light-yellow microcrystalline solid that melts at 141-142° C. (uncorrected), presents UV absorption maxima at 247 nm and 365 nm and has an Rf value of 0.65 (using benzene as eluant and Merck's TLC silica gel 60 F254 plastic-backed sheets), with only one spot being observed. The mixed melting point of this compound and authentic tyrphostin 9 (acquired from Cayman Chemical) was also 141-142° C. (uncorrected), and its spectroscopic and chromatographic properties were identical to those of the authentic product. This compound is stable, with a shelf life of over 1 year at 25-35° C.; if necessary it may be recrystallized from ethanol.

[2] = well known properties; cited from earlier work
[3] = tested on: human cell lines (brain, liver, lung, intestine, kidney, and muscle); experiment: Preclinical toxicity study in human cell lines; type: cell-based; details: all examined human cell lines: brain
Method: as §1

[4] = tested on: overweight, obese, and/or diabetic subjects; experiment: Preliminary trial in overweight, obese, and/or diabetic subjects; type: in vivo, human
Method: A preliminary trial involving 75 overweight, obese, and/or diabetic subjects of both sexes was carried out over a twenty-month period. Exclusion criteria were: (1) recent significant weight gain, (2) a compromised thermoregulatory system, (3) pregnancy, (4) renal or hepatic failure, (5) use of illegal drugs or drugs that impair the body's heat dissipation mechanisms, (6) serious dysrhythmias, (7) unstable angina pectoris, (8) congestive heart failure, (9) severe cerebrovascular disease, (10) use of a pacemaker, (11) severe pulmonary impairment, (12) anemia, (13) Parkinson's disease, (14) body weight of less than 35 kilograms, (15) extensive psoriasis, (16) repeated episodes of hypoglycemia, (17) cystic fibrosis, (18) spinal cord injury, (19) a hereditary muscle disease, (20) chronic or recurrent venous thrombosis, (21) untreated hyperthyroidism, (22) exercise- or heat-induced angioedema, (23) seizure disorders, (24) schizophrenia, and (25) hypocalcemia.
Medications that reduce sweating, decrease vasodilatation, decrease cardiac output, or induce hypothalamic depression were not taken prior to, during, and immediately after treatment.
Obese participants, aged 16-72, were administered orally one or more hard gelatin capsules per day, each containing 20 mg of active ingredient (i.e., tyrphostin 9) and microcrystalline cellulose. They were instructed not to modify their food intake or to start a course of exercise. […] Afterwards, different dosing schedules were imposed, with refractory individuals being administered two or three capsules per day (i.e., 40 or 60 mg tyrphostin 9 per day), whereas only one capsule per day was administered to all others, who consequently received 20 mg tyrphostin 9 per day throughout the trial.
Participants were also instructed to prevent dehydration by drinking plenty of water and to replenish electrolytes by taking both potassium and magnesium supplements or V-8 Juice or Gatorade. Those receiving two capsules per day were asked to take them at the same time during weeks two and three and then to switch to one in the morning and one at night during weeks four and five. Participants receiving 40 mg tyrphostin 9 per day reported that sweating/body temperature peaked either during night time or day time, depending on whether the two capsules were taken in the morning or at night. […] Obese participants lost on average 4 kg per month, with cumulative weight losses of up to 48 kg.
Diabetic subjects (mostly obese and all presenting Type 2 diabetes mellitus) were similarly treated.

human neutrophils = details: well known properties; cited from earlier work
[5] = tested on: differentiation of keratocytes into adipocytes; experiment: Inhibition of differentiation into adipocytes; type: cell-based

For `CC(C)(C)c1cc(C=C(C#N)C#N)cc(C(C)(C)C)c1O` [tyrphostin 9], the “weight loss after 15 days” value (obese subjects) was “about 2 kg”, the “toxicity or inflammation in treated mice” value (C57BL/6 mice; 0.175 mg/kg/day during 15 days, histochemical and behavioral criteria) was “no evidence of toxicity or inflammation” and the adipocyte dimensions (C57BL/6 mice; concomitant with visceral lipid transport) was “reduction”. The “effect on chow intake” value (C57BL/6 mice; lean mice) was “no such effect”, the “apoptosis induction, obese versus lean mice” value (C57BL/6 mice; mouse, in vivo) was “more evident in obese mice than in lean mice” and the “glycogen storage in hepatocytes” value (C57BL/6 mice; mouse, in vivo) was “promotes”. For the same molecule, the “visceral lipid transport from adipocytes” value (C57BL/6 mice; mouse, in vivo) was “promotes”, the chow intake curtailed (C57BL/6 mice; obese mice grown on a high-fat diet, oral 0.175 mg/kg/day, 15 days) was “about 50%” and the “adipocyte apoptosis mediated by caspase-3” value (C57BL/6 mice; to a greater extent than taurosporine) was “promotes”. For the same molecule, the shelf life [1] was “over 1 year”, the “toxicity (in vitro and in vivo)” value [2] was “very low toxicity” and the “toxicity in human cell lines” value [3] was “low”. The “sweating/heat sensation, two capsules simultaneously versus one in the morning and one at night” value ([4]; 40 mg per day, weeks two and three simultaneous, weeks four and five split) was “more intense during weeks two and three”, the “slimming (waist circumference and other body measurements)” value ([4]; all participants, end of treatment) was “significant reductions in waist circumference” and the blood glucose level ([4]; diabetic subjects (Type 2 diabetes mellitus, mostly obese)) was “significant decrease”. For the same molecule, the “sweating / body temperature reported by participants” value ([4]; end of first week, one 20 mg capsule per day, oral) was “most of them reported sweating copiously and/or noticing a distinct increase in body temperature”, the “sweating / heat sensation reported by participants” value ([4]; end of trial, 20, 40 or 60 mg per day, all participants) was “sweating copiously and/or experienced an increased heat sensation” and the adverse effects ([4]; human, in vivo) was “no adverse effects were reported”. For the same molecule, the muscle mass loss ([4]; human, in vivo) was “negligible”, the rebound effect ([4]; human, in vivo) was “no “rebound effect” was observed” and the tolerability of treatment ([4]; human, in vivo) was “very well tolerated”. For the same molecule, the blood lipid values ([4]; obese and diabetic subjects) was “lower blood lipid values”, the cumulative weight losses ([4]; obese participants) was “up to 48 kg” and the average weight loss ([4]; obese participants, 20-60 mg per day oral) was 4 kg per month. For the same molecule, the “TNF-induced respiratory burst of human neutrophils” value (human neutrophils) was “inhibits” and the “differentiation of keratocytes into adipocytes” value [5] was “inhibits”.
